pIC50: −log10 of the molar value.
Assays:
[1] = target: T1, TYK2-JH2 domain (Homo sapiens, UniProt P29597); test: Binding activity test for JH2 domain of TYK2 (Tb-antibody/tracer FRET); settings: JH2 domain enzyme; 60 min at 25°C, then 4°C overnight; read-out: TYK2 JH2 Binding IC50
T1 construct: JAK1-JH2 domain or TYK2-JH2 domain enzyme in assay buffer
Protocol: Binding Activity test for JH2 domain of JAK1 and TYK2 […] Add 8μL/well in echo source plate, echo will add 75nL/well with 3-fold serial dilution for 11 points in assay plate. 75nL DMSO for high control and low control. […] For low control, add 5μL/well assay buffer. And then spin down at 1000rpm and centrifuge for 30 seconds. After enzyme system prepared, add 5μL of Tb-antibody solution into each well of assay plate. Spin down at 1000 rpm and centrifuge for 30sec. After Tb-antibody added, also add 5μL of tracer into the assay plate. Spin down at 1000rpm and centrifuge for 30sec. Incubate for […] at 25°C firstly and then continue to incubate the plate at 4°C overnight. Read by envision in FRET mode. The Luminescence value was recorded by a multi-label reader Envision (PerkinElmer). […] Table 2. IC50 on JH2 domain activity (nM)

[2] = system: Ba/F3-FL-TYK2-P760L cells; test: Anti-proliferative assay in engineered Ba/F3 cells (Cell-Titer Glo, 72 h); format: cell-based; settings: Mus musculus, BaF3, 72 h, 72 h compound treatment, concentration that causes 50% growth inhibition, read-out: Baf3-FL-T2P760L
Protocol: Dimerization domain of Tel protein fused with JAK kinase domain was permanently transduced into Ba/F3 cells, whose proliferation is dependent on JAK activity in the absence of IL-3 induction. These engineered Ba/F3-FL-TYK2-P760L cells were used to monitor JAK inhibitory activities of the compounds in the cellular. Ba/F3 cells were cultured in RPMI-1640 (Corning) containing 10% fetal bovine serum. Cells were seeded at 2000/well of white flat bottom 96-well plates. The well containing medium only was used as background control. After 24h growth, cells were treated with compounds. The test compounds were dissolved in DMSO to a stock concentration of 20 mM. 3-fold serially diluted compounds for 9 concentrations with top concentration of 20 µM was added into the each well. The final DMSO concentration was 0.1%. The cells continued to grow at 37°C in 5% CO2 for 72 h after compound treatment. The viability was measured by cellular ATP determination using the Cell-Titer Glo luciferase reagent (Promega). The Luminescence value was recorded by a multi-label reader Envision (PerkinElmer). Inhibition Rate was calculated relative to vehicle (DMSO) treated control wells using following formula: % Inhibition = 100−(RLU_compound−RLU_blank)/(RLU_control−RLU_blank) × 100% [formula] wherein • RLU_compound = the relative light unit of cells treated with test compounds • RLU_blank = the relative light unit of medium with DMSO only • RLU_control = the relative light unit of cells treated with DMSO only
Table 4. Ba/F3-FL-TYK2-P760L Cells IC50 Values of Exemplary Compounds

T1 sequence (P29597 589-875 limits assumed): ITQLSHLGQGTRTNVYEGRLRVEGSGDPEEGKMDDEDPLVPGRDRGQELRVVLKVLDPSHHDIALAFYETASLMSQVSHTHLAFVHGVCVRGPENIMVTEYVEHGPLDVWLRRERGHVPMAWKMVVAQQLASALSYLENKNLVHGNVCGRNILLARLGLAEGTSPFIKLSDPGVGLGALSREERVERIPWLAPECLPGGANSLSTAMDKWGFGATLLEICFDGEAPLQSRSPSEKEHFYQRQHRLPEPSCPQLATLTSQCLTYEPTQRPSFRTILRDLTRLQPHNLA

| pIC50 [1] | pIC50 [2] | Structure (SMILES) |
| --- | --- | --- |
| 9.54 | 7.27 | COCc1ccc2c(c(Nc3cc(NC(=O)C4CC4)ncc3C(=O)OC)nn2C)c1OC [Example 133, Methyl 6-(cyclopropanecarboxamido)-4-((4-methoxy-5-(methoxymethyl)-1-methyl-1H-indazol-3-yl)amino)nicotinate] |
| 9.74 | 7.51 | COC(=O)c1cnc(NC(=O)C2CC2)cc1Nc1nn(C)c2ccc(C(OC)C3(F)CC3)c(OC)c12 (centres unmarked) [Example 74, Methyl 6-(cyclopropanecarboxamido)-4-((5-((1-fluorocyclopropyl) (methoxy)methyl)-4-methoxy-1-methyl-1H-indazol-3-yl)amino)nicotinate] |
| 9.68 | 7.66 | COC(=O)c1cnc(NC(=O)C2CC2)cc1Nc1nn(C)c2ccc(C(OC)C3CC3)c(OC)c12 (centres unmarked) [Example 114, Methyl 6-(cyclopropanecarboxamido)-4-((5-(cyclopropyl(methoxy)methyl)-4-methoxy-1-methyl-1H-indazol-3-yl)amino)nicotinate] |
| 9.92 | 8.01 | COC(=O)c1cnc(NC(=O)C2CC2)cc1Nc1nn(C)c2ccc(C(OC)C(C)(F)F)c(OC)c12 (single isomer, unassigned) [Example 115A, Methyl (S*)-6-(cyclopropanecarboxamido)-4-((5-(2,2-difluoro-1-methoxypropyl)-4-methoxy-1-methyl-1H-indazol-3-yl)amino)nicotinate] |
| 8.96 | 6.95 | COC(=O)c1cnc(NC(=O)C2CC2)cc1Nc1nn(C)c2ccc([C@H](OC)C(C)OC)c(OC)c12 (stereo partly drawn) [Example 166, Methyl 6-(cyclopropanecarboxamido)-4-((5-((1S)-1,2-dimethoxypropyl)-4-methoxy-1-methyl-1H-indazol-3-yl)amino)nicotinate] |
| 8.57 | 6.55 | COC(=O)c1cnc(NC(=O)C2CC2)cc1Nc1nn(C)c2ccc(C(OC)C(C)OC)c(OC)c12 (centres unmarked) [Example 165, Methyl 6-(cyclopropanecarboxamido)-4-((5-(1,2-dimethoxypropyl)-4-methoxy-1-methyl-1H-indazol-3-yl)amino)nicotinate] |
| 9.32 | 7.30 | COC(=O)c1cnc(NC(=O)C2CC2)cc1Nc1nn(C)c2ccc(CO)c(OC)c12 [Example 164, Methyl 6-(cyclopropanecarboxamido)-4-((5-(hydroxymethyl)-4-methoxy-1-methyl-1H-indazol-3-yl)amino)nicotinate] |

The next lines start with the compound.

| Structure (SMILES) | pIC50 [1] | pIC50 [2] |
| --- | --- | --- |
| [2H]C([2H])([2H])NC(=O)c1cnc(NC(=O)C2CC2)cc1Nc1nn(C)c2ccc([C@H](OC)C(F)(F)F)c(OC([2H])([2H])[2H])c12 [Example 152, (S)-6-(cyclopropanecarboxamido)-4-((4-(methoxy-d3)-1-methyl-5-(2,2,2-trifluoro-1-methoxyethyl)-1H-indazol-3-yl)amino)-N-(methyl-d3)nicotinamide] | 10.15 | 9.55 |
| COC(=O)c1cnc(NC(=O)C2CC2)cc1Nc1nn(C(F)(F)F)c2ccc(C(OC)C(F)(F)F)c(OC)c12 (centres unmarked) [Example 163, Methyl 6-(cyclopropanecarboxamido)-4-((4-methoxy-5-(2,2,2-trifluoro-1-methoxyethyl)-1-(trifluoromethyl)-1H-indazol-3-yl)amino)nicotinate] | 9.31 | 7.25 |
| COCCn1nc(Nc2cc(NC(=O)C3CC3)ncc2C(=O)OC)c2c(OC)c(C(OC)C(F)(F)F)ccc21 (centres unmarked) [Example 78, Methyl 6-(cyclopropanecarboxamido)-4-((4-methoxy-1-(2-methoxyethyl)-5-(2,2,2-trifluoro-1-methoxyethyl)-1H-indazol-3-yl)amino)nicotinate] | 9.77 | 8.28 |
| CCC(=O)c1cnc(NC(=O)C2CC2)nc1Nc1cccc(-c2cnn(C)n2)c1OC [Example 158, N-(4-((2-methoxy-3-(2-methyl-2H-1,2,3-triazol-4-yl)phenyl)amino)-5-propionylpyrimidin-2-yl)cyclopropanecarboxamide] | 9.30 | 7.16 |
| C/C=C(\F)c1cnc(NC(=O)C2CC2)cc1Nc1nn(C)c2ccc(C(O)C(F)(F)F)c(OC)c12 (centres unmarked) [Example 130, (Z)-N-(5-(1-fluoroprop-1-en-1-yl)-4-((4-methoxy-1-methyl-5-(2,2,2-trifluoro-1-hydroxyethyl)-1H-indazol-3-yl)amino)pyridin-2-yl)cyclopropanecarboxamide] | 9.16 | 6.80 |
| COC(=O)c1cnc(NC(=O)C2CC2)cc1Nc1nn(C)c2ccc(CC#N)c(OC)c12 [Example 145, Methyl 4-((5-(cyanomethyl)-4-methoxy-1-methyl-1H-indazol-3-yl)amino)-6-(cyclopropanecarboxamido)nicotinate] | 9.82 | 7.82 |
| COC(=O)c1cnc(NC(=O)C2CC2)cc1Nc1nn(C)c2ccc(CC(F)(F)F)c(OC)c12 [Example 148, Methyl 6-(cyclopropanecarboxamido)-4-((4-methoxy-1-methyl-5-(2,2,2-trifluoroethyl)-1H-indazol-3-yl)amino)nicotinate] | 10.04 | 8.15 |
| COC(=O)c1cnc(NC(=O)C2CC2)cc1Nc1nn(C)c2ccc(C3COCCO3)c(OC)c12 (centres unmarked) [Example 160, Methyl 4-((5-(1,4-dioxan-2-yl)-4-methoxy-1-methyl-1H-indazol-3-yl)amino)-6-(cyclopropanecarboxamido)nicotinate] | 9.15 | 6.92 |
| [2H]C([2H])([2H])CC(=O)c1cnc(NC(=O)C2CC2)cc1Nc1nn(C)c2ccc(C(OC)C3(F)CC3)c(OC)c12 (centres unmarked) [Example 150, N-(4-((5-((1-fluorocyclopropyl)(methoxy)methyl)-4-methoxy-1-methyl-1H-indazol-3-yl)amino)-5-(propanoyl-3,3,3-d3)pyridin-2-yl)cyclopropanecarboxamide] | 9.81 | 7.49 |
| [2H]C([2H])([2H])Oc1c([C@H](OC)C(F)(F)F)ccc2c1c(Nc1cc(NC(=O)C3CC3)ncc1C(=O)OC)nn2C [Example 120A, Methyl (S)-6-(cyclopropanecarboxamido)-4-((4-(methoxy-d3)-1-methyl-5-(2,2,2-trifluoro-1-methoxyethyl)-1H-indazol-3-yl)amino)nicotinate] | 10.05 | 8.57 |
| [2H]C([2H])([2H])Oc1c([C@@H](OC)C(F)(F)F)ccc2c1c(Nc1cc(NC(=O)C3CC3)ncc1C(=O)OC)nn2C [Example 120B, Methyl (R)-6-(cyclopropanecarboxamido)-4-((4-(methoxy-d3)-1-methyl-5-(2,2,2-trifluoro-1-methoxyethyl)-1H-indazol-3-yl)amino)nicotinate] | 9.35 | 6.97 |
| COC(=O)c1cnc(NC(=O)C2CC2)cc1Nc1nn(C)c2ccc(C3(C#N)CC3)c(OC)c12 [Example 162, Methyl 4-((5-(1-cyanocyclopropyl)-4-methoxy-1-methyl-1H-indazol-3-yl)amino)-6-(cyclopropanecarboxamido)nicotinate] | 9.58 | 7.58 |
| COC(=O)c1cnc(NC(=O)[C@@H]2C[C@@H]2F)cc1Nc1nn(C)c2ccc(C(OC)C(C)(F)F)c(OC)c12 (stereo partly drawn) [Example 116, Methyl 4-((5-(2,2-difluoro-1-methoxypropyl)-4-methoxy-1-methyl-1H-indazol-3-yl)amino)-6-((1S,2S)-2-fluorocyclopropane-1-carboxamido)nicotinate] | 9.73 | 8.33 |
| [2H]C([2H])([2H])NC(=O)c1cnc(NC(=O)C2CC2)cc1Nc1nn(C)c2ccc([C@@H](OC)C(F)(F)F)c(OC)c12 [Example 46B, (R)-6-(cyclopropanecarboxamido)-4-((4-methoxy-1-methyl-5-(2,2,2-trifluoro-1-methoxyethyl)-1H-indazol-3-yl)amino)-N-(methyl-d3)nicotinamide] | 9.74 | 7.95 |
| [2H]C([2H])([2H])CC(=O)c1cnc(NC(=O)C2CC2)cc1Nc1nn(C)c2ccc(C#N)c(OC)c12 [Example 127, N-(4-((5-cyano-4-methoxy-1-methyl-1H-indazol-3-yl)amino)-5-(propanoyl-3,3,3-d3)pyridin-2-yl)cyclopropanecarboxamide] | 9.59 | 7.28 |
